# Data reported in patent US20210322375A1, “COMBINATION DRUG FORMULATIONS FOR TREATING PATIENTS WITH CARDIOVASCULAR DISEASE AND ASSOCIATED CONDITIONS” (Esperion Therapeutics, Inc., priority 2018, published 2021).
# Entries after “also recorded” stand apart in the source; their conditions may differ. Marks after values point to notes of the source that are not given here.
# Experiments:
# [1] = test system: hypercholesterolemic patients; experiment: Phase 2b randomized double-blind trial: percent change from baseline to week 12 in lipids and CRP; type: in vivo, human; settings: for LDL-C reduction: baseline to week 12; for Apolipoprotein A-I, percent change from baseline to week 12 / Apolipoprotein B, percent change from baseline to week 12 / HDL particle number, percent change from baseline to week 12 / HDL-C, percent change from baseline to week 12 / LDL particle number, percent change from baseline to week 12 / LDL-C, percent change from baseline to week 12 / Non-HDL-C, percent change from baseline to week 12 / Total cholesterol, percent change from baseline to week 12: LS mean ± SE; for CRP, percent change from baseline to week 12 / Triglycerides, percent change from baseline to week 12 / VLDL particle number, percent change from baseline to week 12: median (interquartile range)
# Experimental: Brief Description of Clinical Study and Results.
# Study Objectives. The primary objective was to assess the LDL-C-lowering effect of ETC-1002 monotherapy (120 mg or 180 mg daily) versus EZE monotherapy in hypercholesterolemic patients with or without statin intolerance. Secondary objectives were to characterize the dose response of ETC-1002, evaluate the impact of treatment on other lipid and cardiometabolic biomarkers, compare the LDL-C-lowering effect of ETC-1002 plus EZE combination therapy with EZE monotherapy, and characterize the safety and tolerability of the treatment regimens, including muscle-related adverse events (AEs).
# Overall Study Design and Plan. […] 16, 2013 to Aug.
# LDL-C was calculated using the Friedewald equation.
# Efficacy Endpoints. The primary endpoint was the percent change from baseline to week 12 in calculated LDL-C in patients treated with ETC-1002 monotherapy versus those treated with EZE alone. Secondary endpoints included the dose-response relationship between ETC-1002 and the percent change in LDL-C from baseline to week 12, the percent change in LDL-C from baseline to week 12 in patients treated with ETC-1002 plus EZE versus those treated with EZE alone, and the percent change from baseline to week 12 for all treatment groups in LDL particle number, apolipoprotein B, total cholesterol, non-high-density lipoprotein cholesterol (non-HDL-C), HDL-C, HDL particle number, apolipoprotein A-I, triglycerides, very-low-density lipoprotein (VLDL) particle number, and high-sensitivity C-reactive protein (CRP). Lipoprotein particle number was measured using nuclear magnetic resonance […].
# Statistical Plan and Analyses. The study was designed to include 322 patients: 92 patients in each monotherapy group and 23 patients in each combination therapy group. Sample size calculations were performed using nQuery Advisor® version 7.0 (Statistical Solutions, Cork, Ireland). The sample size of 92 patients per monotherapy group was expected to provide 90% power to detect a difference of 10% in the absolute percent change from baseline to week 12 in LDL-C between either ETC-1002 treatment group and the EZE monotherapy group. This calculation was based on a 2-sided t test at the 5% level of significance and assumed a common standard deviation of 15% in the statin-tolerant patients and 22% in the statin-intolerant patients with a dropout rate of 15%.
# An analysis of covariance was used to compare each ETC-1002 treatment group with EZE monotherapy for each of the efficacy endpoints. The primary model included the effects of treatment and statin intolerance and the baseline value as a covariate. Baseline was defined as the mean of values from weeks −1 and 0 for LDL-C, non-HDL-C, total cholesterol, HDL-C, and triglycerides. For all other lipid and biomarker measures, baseline was defined as the last value before the first dose of study drug. Missing values at week 12 were imputed using the last-observation-carried-forward procedure. When LDL-C could not be calculated (i.e., triglycerides >400 mg/dL), beta-quantification measurements were used to determine LDL-C values. Least-squares (LS) means and standard errors were obtained for each treatment group; differences in LS means and p-values were obtained for the treatment comparisons. Graphical methods (e.g., normal probability plot and histogram of residuals, plot of residuals vs. predicted values) or analytical methods (e.g., Shapiro-Wilk test), or both, were used to assess the model assumptions. Because of departures from normality observed in the parameters of triglycerides, CRP, and VLDL particle number, nonparametric analyses were performed for these measures, with p-values obtained from the Wilcoxon rank-sum test and median values presented.
# Percent changes from baseline in LDL-C also were summarized by statin-tolerance subgroup. […]
# [2] = test system: high cardiovascular risk patients; experiment: Phase 3 clinical trial study: LDL-C and hsCRP lowering; type: in vivo, human; settings: ETC-1002 monotherapy
# [3] = test system: high cardiovascular risk patients; experiment: Phase 3 clinical trial study: safety and tolerability; settings: human, in vivo
# Description: In a phase 3 clinical trial study consisting of 382 high cardiovascular risk patients who are receiving maximally tolerated statin therapy, treatment of ETC-1002 in combination with Ezetimibe provided clinically and statistically significant lowering of both LDL-C and hsCRP levels by about 35% and about 34% respectively. For patients who are on maximally tolerated statins and received the combination therapy of ETC-1002 and Ezetimibe, no increases in muscle-related adverse effects and no elevations in liver function tests were observed as compared to patients receiving the placebo treatment.
# [4] = test system: hypercholesterolemic patients; experiment: Phase 2b trial: treatment-emergent adverse events and laboratory safety
# Description: Study Population. Medically stable, hypercholesterolemic men and women aged 18 through 80 years with a body mass index between 18 to 45 kg/m^2 were included in the study. […] The study population included both statin-tolerant and statin-intolerant participants. Statin intolerance was defined as the inability to tolerate ≥2 statins because of muscle-related symptoms such as pain, weakness, or cramping that began or increased during statin therapy and resolved on statin discontinuation. At least 1 statin must have been administered at the lowest approved daily dose, defined as rosuvastatin 5 mg, atorvastatin 10 mg, simvastatin 10 mg, lovastatin 20 mg, pravastatin 40 mg, fluvastatin 40 mg, or pitavastatin 2 mg. Treatment with less than the lowest approved daily dose of a statin (i.e., skipping days) was considered equivalent to not tolerating 1 statin at the lowest approved daily dose.
# Overall Study Design and Plan. […] Patients underwent a 5-week washout of all lipid-regulating drugs and dietary supplements and abstained from these drugs and supplements throughout the study. Patients also underwent a 5-week patient-only-blinded placebo run-in during the screening period (week −5 to week 0). This single-blind placebo run-in period was used to eliminate patients with muscle-related AEs during placebo treatment. Patients reporting new or worsening, unexplained muscle-related AEs during this run-in period were excluded from the study.
# Patients were stratified (1:1) by history of statin intolerance and randomized at week 0 in a 4:4:4:1:1 ratio to once-daily treatment with capsules containing ETC-1002 120 mg, ETC-1002 180 mg, EZE, ETC-1002 120 mg plus EZE, or ETC-1002 180 mg plus EZE. […] A contract laboratory (Medpace Inc., Cincinnati, Ohio), performed all clinical laboratory tests. LDL-C was calculated using the Friedewald equation. Phlebotomy was performed after a minimum 12-hour fast (water was allowed) and only if the patient took their dose of study drug the previous day.
# Safety Endpoints. The safety of ETC-1002 was assessed using treatment-emergent AEs; hematology, serum chemistry, and urinalysis laboratory values; physical examination findings; vital sign measurements; electrocardiogram (ECG) readings; weight; and ankle and waist circumference measurements. AEs were coded using the Medical Dictionary for Regulatory Activities version 16.0 and evaluated by the investigator for severity and relation to study drug. Muscle-related AEs were defined as those from the system organ class of musculoskeletal and connective tissue disorders, except for those that were not obviously muscle related. Terms included in the muscle-related AE analysis were selected from this system organ class after database lock and before unblinding.
# Safety analyses were performed on the safety population, which included randomized patients who received at least 1 dose of study drug. Baseline patient characteristics were summarized for the safety population by treatment group and statin-tolerance subgroup.
# Muscle-related AEs also were summarized by statin-tolerance subgroup.
# [5] = ETC-1002 120 mg daily, mITT n = 97
# [6] = ETC-1002 180 mg daily, mITT n = 99
# [7] = ETC-1002 120 mg daily, safety population n = 99
# [8] = ETC-1002 180 mg daily, safety population n = 100
# [9] = statin-intolerant patients, ETC-1002 120 mg, n = 51
# [10] = statin-intolerant patients, ETC-1002 180 mg, n = 51
# [11] = statin-tolerant patients, ETC-1002 120 mg, n = 48
# [12] = statin-tolerant patients, ETC-1002 180 mg, n = 49
structure (smiles),measurement,setting,value
"CC(C)(CCCCCC(O)CCCCCC(C)(C)C(=O)O)C(=O)O [ETC-1002, 8-hydroxy-2,2,14,14 tetramethylpentadecanedioic acid]","CRP decrease from baseline to week 12 endpoint, median",[1]; ETC-1002 120 mg,30%
same,LDL-C reduction,[1]; ETC-1002 120 mg alone,27%
same,"Apolipoprotein A-I, percent change from baseline to week 12",[1]; [5],−0.2 ± 1.1%
same,"Apolipoprotein B, percent change from baseline to week 12",[1]; [5],−19.3 ± 1.3 %
same,"HDL particle number, percent change from baseline to week 12",[1]; [5],5.0 ± 1.3%
same,"HDL-C, percent change from baseline to week 12",[1]; [5],−5.8 ± 1.4 %
same,"LDL particle number, percent change from baseline to week 12",[1]; [5],−21.8 ± 1.7 %
same,"LDL-C, percent change from baseline to week 12",[1]; [5],−27.5 ± 1.3 %
same,"Non-HDL-C, percent change from baseline to week 12",[1]; [5],−23.2 ± 1.2 %
same,"Total cholesterol, percent change from baseline to week 12",[1]; [5],−19.3 ± 0.9 %
same,"CRP, percent change from baseline to week 12",[1]; [5],−30.1 (55.4)† %
same,"Triglycerides, percent change from baseline to week 12",[1]; [5],0.0 (41.6) %
same,"VLDL particle number, percent change from baseline to week 12",[1]; [5],−2.7 (68.5) %
same,"CRP decrease from baseline to week 12 endpoint, median",[1]; ETC-1002 180 mg,40%
same,LDL-C reduction,[1]; ETC-1002 180 mg alone,30%
same,"Apolipoprotein A-I, percent change from baseline to week 12",[1]; [6],0.1 ± 1.2%
same,"Apolipoprotein B, percent change from baseline to week 12",[1]; [6],−21.3 ± 1.3 %
same,"HDL particle number, percent change from baseline to week 12",[1]; [6],6.2 ± 1.4%
same,"HDL-C, percent change from baseline to week 12",[1]; [6],−4.8 ± 1.4 %
same,"LDL particle number, percent change from baseline to week 12",[1]; [6],−24.6 ± 1.8 %
same,"LDL-C, percent change from baseline to week 12",[1]; [6],−30.1 ± 1.3 %
same,"Non-HDL-C, percent change from baseline to week 12",[1]; [6],−25.3 ± 1.1 %
same,"Total cholesterol, percent change from baseline to week 12",[1]; [6],−20.7 ± 0.9 %
same,"CRP, percent change from baseline to week 12",[1]; [6],−40.2 (53.3)† %
same,"Triglycerides, percent change from baseline to week 12",[1]; [6],−2.7 (46.2) %
same,"VLDL particle number, percent change from baseline to week 12",[1]; [6],15.3 (80.5) %
same,"LDL-C reduction, ETC-1002 alone (maximum)",[1]; ETC-1002 monotherapy 120 mg or 180 mg,up to 30%
same,LDL-C lowering,[2]; patients not receiving background statin therapy,≥ 30%
same,LDL-C lowering,[2]; patients receiving background statin therapy,≥ 20%
same,hsCRP lowering,[2]; patients receiving maximally tolerated statin therapy,22-40%
same,Increases in muscle-related adverse effects or serious adverse effects,[3],without any increases
same,Tolerability,[3],well tolerated and safe
same,"ALT or AST, or both, increased >3 times the upper limit of normal at any measurement",[4]; ETC-1002 120 mg,1 patient
same,"Myalgia, patients, entire study population",[4]; ETC-1002 120 mg,3%
same,Serious AE reported (event),[4]; ETC-1002 120 mg,hemothorax; also recorded: sudden death
same,"ALT increased, patients",[4]; [7],0 n (%)
same,"AST increased, patients",[4]; [7],0 n (%)
same,"Any AE(s), patients",[4]; [7],50 (51%) n (%)
same,"Arthralgia, patients",[4]; [7],4 (4%) n (%)
same,"Back pain, patients",[4]; [7],1 (1%) n (%)
same,"Blood CK increased, patients",[4]; [7],1 (1%) n (%)
same,"Constipation, patients",[4]; [7],3 (3%) n (%)
same,"Discontinuation due to AE(s), patients",[4]; [7],3 (3%) n (%)
same,"Headache, patients",[4]; [7],3 (3%) n (%)
same,"Myalgia, patients",[4]; [7],3 (3%) n (%)
same,"Nasopharyngitis, patients",[4]; [7],3 (3%) n (%)
same,"Serious AE(s), patients",[4]; [7],2 (2%) n (%)
same,"Study drug-related AE(s), patients",[4]; [7],13(13%) n (%)
same,"Upper respiratory tract infection, patients",[4]; [7],6 (6%) n (%)
same,"Urinary tract infection, patients",[4]; [7],0 n (%)
same,"ALT or AST, or both, increased >3 times the upper limit of normal at any measurement",[4]; ETC-1002 180 mg,2 patients
same,"Myalgia, patients, entire study population",[4]; ETC-1002 180 mg,1%
same,Serious AE reported (event),[4]; ETC-1002 180 mg,pancreatitis relapse
same,"ALT increased, patients",[4]; [8],0 n (%)
same,"AST increased, patients",[4]; [8],0 n (%)
same,"Any AE(s), patients",[4]; [8],55 (55%) n (%)
same,"Arthralgia, patients",[4]; [8],1 (1%) n (%)
same,"Back pain, patients",[4]; [8],1 (1%) n (%)
same,"Blood CK increased, patients",[4]; [8],4 (4%) n (%)
same,"Constipation, patients",[4]; [8],1 (1%) n (%)
same,"Discontinuation due to AE(s), patients",[4]; [8],6 (6%) n (%)
same,"Headache, patients",[4]; [8],2 (2%) n (%)
same,"Myalgia, patients",[4]; [8],1 (1%) n (%)
same,"Nasopharyngitis, patients",[4]; [8],5 (5%) n (%)
same,"Serious AE(s), patients",[4]; [8],1 (1%) n (%)
same,"Study drug-related AE(s), patients",[4]; [8],18 (18%) n (%)
same,"Upper respiratory tract infection, patients",[4]; [8],6 (6%) n (%)
same,"Urinary tract infection, patients",[4]; [8],4 (4%) n (%)
same,"Any muscle-related AE, patients",[4]; [9],7 (14%) n (%)
same,"Muscle spasms, patients",[4]; [9],3 (6%) n (%)
same,"Muscle-related AE leading to discontinuation, patients",[4]; [9],1 (2%) n (%)
same,"Muscular weakness, patients",[4]; [9],2 (4%) n (%)
same,"Musculoskeletal chest pain, patients",[4]; [9],0 n (%)
same,"Musculoskeletal stiffness, patients",[4]; [9],0 n (%)
same,"Myalgia, patients",[4]; [9],2 (4%) n (%)
same,"Pain in extremity, patients",[4]; [9],1 (2%) n (%)
same,"Sensation of heaviness, patients",[4]; [9],0 n (%)
same,"Any muscle-related AE, patients",[4]; [10],6 (12%) n (%)
same,"Muscle spasms, patients",[4]; [10],2 (4%) n (%)
same,"Muscle-related AE leading to discontinuation, patients",[4]; [10],2 (4%) n (%)
same,"Muscular weakness, patients",[4]; [10],1 (2%) n (%)
same,"Musculoskeletal chest pain, patients",[4]; [10],1 (2%) n (%)
same,"Musculoskeletal stiffness, patients",[4]; [10],0 n (%)
same,"Myalgia, patients",[4]; [10],1 (2%) n (%)
same,"Pain in extremity, patients",[4]; [10],1 (2%) n (%)
same,"Sensation of heaviness, patients",[4]; [10],0 n (%)
same,"Any muscle-related AE, patients",[4]; [11],1 (2%) n (%)
same,"Muscle spasms, patients",[4]; [11],0 n (%)
same,"Muscle-related AE leading to discontinuation, patients",[4]; [11],0 n (%)
same,"Musculoskeletal pain, patients",[4]; [11],0 n (%)
same,"Myalgia, patients",[4]; [11],1 (2%) n (%)
same,"Any muscle-related AE, patients",[4]; [12],0 n (%)
same,"Muscle spasms, patients",[4]; [12],0 n (%)
same,"Muscle-related AE leading to discontinuation, patients",[4]; [12],0 n (%)
same,"Musculoskeletal pain, patients",[4]; [12],0 n (%)
same,"Myalgia, patients",[4]; [12],0 n (%)
